Results on 8 molecules are retold here after patent US20260335251A1, “RED BLOOD CELL-HITCHHIKING IONIC LIQUID COATED NANOPARTICLES FOR CROSSING THE BLOOD BRAIN BARRIER” (University of Mississippi, priority 2022, published 2026).

Entries after “also recorded” stand apart in the source; their conditions may differ.

The nature of series [1]: Abacavir detection in brain regions (1H-NMR). It counts as in vivo, Sprague-Dawley rat. The conditions noted are these: 6 h; IL-PLGA NPs with 60 μg/mL ABC, intra-carotid; n=3/group. How it is done: Abacavir Detection in the Brain: In parallel with DiD-NP injections, Sprague-Dawley rats injected with IL-PLGA NPs (either without cargo or with 60 μg/mL ABC, n=3) were sacrificed at 6 hours post-injection, and whole organs were processed, and frozen post-mortem as described above in Biodistribution. In order to assess to areas of biodistribution of abacavir within the brain, the following regions were sliced and homogenized in a 1:1 mixture of 1×PBS (pH 7.4) and Acetonitrile constituting a total homogenate volume of 500 μL per sample: striatum, midbrain, interbrain, cerebellum, hypothalamus, cerebral cortex, & hippocampus. […] A range of 500-600 μL of liquid filtrate was recovered across all samples, which were all delivered into clean NMR tubes and topped 10% (v/v) with D2O to be evaluated for presence of drug by ^1H NMR at 400 MHz with 90% H2O/10% D2O water suppression.
Once biodistribution was determined with DiD, a new set of healthy, 8-week-old, female, Sprague Dawley rats with in-dwelling carotid catheters received IV infusions (under the same conditions) with either empty, or ABC-encapsulated, IL-coated PLGA NPs (n=3/group). Sites of regional distribution of abacavir cargo were evaluated within the brain (at the same 6-hour endpoint). […]

The test system of the next series is HIV-1BaL. The experiment in a line: HIV-1 replication in human PBMCs (p24 antigen ELISA). The format is cell-based, HIV-1 (in human PBMCs). The note with it: days 3, 7, 10 post-infection; ABC alone or in NPs p<0.0001; empty IL-coated NPs p=0.04. The procedure: HIV Expression and Cytotoxicity: 3 independent batches of bare and CA2HA 1:2-coated PLGA NPs were prepared with abacavir (ABC) as above but in sterile Milli-Q water and re-suspended to 1 mg/ml with sterile 1×PBS pH 7.4. As ~60 μg/mL of drug was estimated by quantitative NMR, PBMC cells were stimulated with 10 μg/ml of PHA for 4 days. Stimulated PBMC cells were harvested at 400×g, RT for 10 min. The cells at 2×10^6 cells/mL were used for each experimental condition and infected with 1 ng/ml of HIV-1 Bal+ in presence of 3 ng/ml of IL-2 and 2 μg/ml of polybrene. PBMC cells were treated in the absence or presence of nanoparticles at 10 µM final concentration. […] The cell viability was determined by trypan blue at each harvesting day and an aliquot of condition media was saved for further analysis on p24 antigen assay. […] The p24 antigen assay was performed according to manufacture protocol on experimental condition media collected on 3, 7, 10 days post HIV-1 infection for quantification of HIV-1.
To assess the bioactivity of ART when encapsulated inside PLGA & IL-PLGA NPs, HIV-1 replication was assessed in human peripheral blood mononuclear cells (PBMCs) that were mock-infected or were infected with HIV-1BaL (1 ng/ml) for 10 days. […] Concentration of the HIV-1 capsid protein (p24, ng/ml) was assessed on days 3-, 7-, and 10 post-infection by enzyme-linked immunosorbent assay (ELISA) (FIG. 7).
(An ELISA detects its analyte on a solid surface through an enzyme-linked reagent.)

The nature of series [2]: Quantitative encapsulation of ABC (1H NMR). The format is physicochemical. The note with it: for ABC encapsulated: ~1 mg/mL NPs, from an added 74.1 μg/mL, quantitative 1H NMR. The procedure: Quantitative encapsulation of ABC (^1H NMR): PLGA and CA2HA 1:2 PLGA NPs were synthesized in deuterium oxide as described previously, and then resuspended to 500 μL (2 mg/mL) to quantitatively measure composition of the IL coating on the surface of the PLGA NPs with 20 μL Tetramethylsilane (TMS) internal quantification standard: ^1H NMR (400 MHz, D2O) δ 6.85 (dt, J=15.8, 7.0 Hz, 27H), 5.85 (dt, J=15.7, 1.5 Hz, 28H), 4.78 (d, J=1.3 Hz, 7140H), 4.09-4.02 (m, 27H), 3.81-3.71 (m, 21H), 3.64 (dd, J=11.8, 4.5 Hz, 45H), 3.60-3.47 (m, 73H), 3.25 (s, 136H), 2.72 (d, J=1.3 Hz, 14964H), 2.19 (qd, J=7.2, 1.6 Hz, 69H), 1.56-1.46 (m, 47H), 0.91 (t, J=7.4 Hz, 96H), 0.00 (s, 12H).
To break open the NPs, bare PLGA NPs and IL-PLGA NPs were first sonicated at 60° C. for 30 minutes to destroy the outer IL coating integrity, evidenced by a phase separation of cloudiness in the IL-PLGA NPs. To next dissociate the IL coating from the polymer core, all particles were vortexed at 25° C. on the highest setting for 10 minutes (in 2-minute intervals). The particles were then stored at −80° C. for 2 minutes to protect the ABC drug while inducing a bulk phase separation, and then vortexed at the highest setting for 2 min at 25° C. Lastly, to extrude the abacavir from the polymer core, all NPs were 30 kDa MWCO centrifuge-filtered for 1 hour at 4500 RPM at 40° C. Filtrate smaller than 30 kDa was collected at the bottom of the tube and stored at −20° C., concentrated (2×) with D2O and evaluated for presence of drug by ^1H NMR at 400 MHz at the highest scan rate (proton64).
As the appearance of drug peaks were very small compared to the IL, 2 μL of TMS was then used in particular to obtain a relative understanding of the size of the small emerging peaks. […] Representation of encapsulated ABC dose was then calculated: • 0.002 mL TMS (0.648 g/mL)=0.0013 g TMS • 0.0013 g TMS/88.22 g/mol TMS=0.0000146 mol TMS • 0.0000146 mol TMS (~0.03 integral ratio, 8.5 ppm & 0 ppm peak) ~4.38×10^−7 mol ABC • 4.38× 10-7 mol ABC (286.3 g/mol ABC) ~ (0.000125 g ABC/2) (ug total ~1 mg/mL) ~62.7 μg/mL ABC encapsulated

In another series the test system is red blood cells. Nature of the series: Red blood cell hitchhiking of nanoparticles coated with the ionic liquid. It counts as cell-based. The conditions noted are these: nanoparticles coated with this ionic liquid.
Series [3] concerns microglia, astrocytes, endothelial cells in brain. The experiment in a line: Confocal/widefield immunofluorescence of brain sections (cellular localization). It counts as in vivo, Sprague-Dawley rat. The conditions noted are these: Iba-1, GFAP, von Willebrand factor. How it is done: Confocal Fluorescence: Perfused and cryopreserved rat brains were sectioned using a microtome (Leica Biosystems, #CM3050S) at 20-micron thickness. The slides were washed twice with 1×PBS and permeabilized (with 0.1% Triton-X, 0.1% BSA in PBS) for 30 min at 25° C. The permeabilized slides were blocked (1% BSA, 1% normal goat serum in PBS) for an additional 30 min at 25° C. and followed by probing with primary rabbit-anti-IBal (1:200 dilution) or […] (1:250 dilution) for 90 min at 25° C. At the end of the incubation, the slides were washed 3x with PBS and followed by incubation with secondary antibodies (Texas Red Goat-anti Rabbit, 1:500 for IBa1 and Alexa 488 goat anti-mouse, 1:500 for GFP), 1 hr at 25° C. To stain cellular nuclei, Hoechst stain was used at 1:10000 dilution. All dilutions represented as (vol/vol). The slides were washed 3× with 1×PBS and mounted with antifade media and kept at 4° C. for further analysis with confocal microscopy. […]
To both qualitatively and quantitatively confirm IL-PLGA NP selectivity for cells comprising the HIV reservoir, brain sections (40 μm) collected from rats used above were co-labeled for protein markers of astrocytes (GFAP; FIG. 3B) and microglia (Iba-1; FIG. 3C) with a Hoechst nuclear counterstain (FIG. 3A). […]

In the case of `Nc1nc(NC2CC2)c2ncn([C@H]3C=C[C@@H](CO)C3)c2n1` [ABC, abacavir], in series [1], the “Abacavir regional brain accumulation” value was “accumulate most greatly in the cerebellum, interbrain, striatum, and midbrain regions; also recorded: lesser (but considerable) delivery to the hippocampus, cerebral cortex, and hypothalamus regions”. Also, the “HIV-1 viral replication (p24) vs HIV-infected cells” value in the series on HIV-1BaL is listed as “significantly attenuated viral replication”. In addition, in series [2] (ABC 2%, estimated by quantitative 1H NMR), the “Encapsulation efficiency (EE) of ABC” value is listed as ~ 84.6%. Also, the ABC encapsulated in series [2] is reported as ~ 62.7 μg/mL; in series [2] (listed as abacavir (ABC)), ~ 60 μg/mL.
Turning to `CCC/C=C/C(=O)O` [CA2HA 1:1, Choline 2-Hexenoate 1:1], the “Red blood cell hitchhiking” value in the series with red blood cells is “successfully hitchhike red blood cells”.
In the case of `CCC/C=C/C(=O)O` [CA2HA 1:2, Choline 2-Hexenoate 1:2], the “Cellular localization in brain” value in series [3] was “colocalizes with HIV reservoir cells”.
Regarding `CC/C=C/CC(=O)O` [CA3HA 1:1, Choline 3-Hexenoate 1:1], the “Red blood cell hitchhiking” value with red blood cells is recorded as “successfully hitchhike red blood cells”.
For `CCC/C(C)=C/C(=O)O` [CA3ME2HA 1:1, Choline Trans-3-Methyl-Trans-2-Hexenoate 1:1], the “Red blood cell hitchhiking” value in the series with red blood cells is given as “successfully hitchhike red blood cells”.
Consider `CC/C(C)=C/C(=O)O` [CA3ME2PE 1:1, Choline Trans-3-Methyl-Trans-2-Pentenoate 1:1], for which, in the series on red blood cells, the “Red blood cell hitchhiking” value was “successfully hitchhike red blood cells”.
Still for that read-out and setting: then `CC/C=C(\C)C(=O)O` [CAGAS 1:2, Choline trans-2-Methyl-2-Pentenoate 1:2], with “successfully hitchhike red blood cells”; and `CCCCCCC(=O)O` [CAHPA 1:1, Choline Heptanoate 1:1], with “successfully hitchhike red blood cells”.
